Measurements as given in article PMC12518634, “The noncanonical function of liver-type phosphofructokinase potentiates the efficacy of HDAC inhibitors in cancer” (Signal Transduction and Targeted Therapy, 2025).
Where a name gives a salt, the structure may show the parent alone. Read-outs that look alike come from different tables or passages of the source.

What was measured:
1405R3 = assay: High-throughput drug screen, CellTiter-Glo viability, 72 h; assay type: cell-based, human; parameters: AUC: scale not given here; settings: 1405R3 DSRT analysis; for AUC: area under the dose-response curve; for MIN: lower asymptote of fitted dose-response curve; for SLOPE: slope of fitted dose-response curve; for EC50: 72 h, fitted dose-response curve, Min.Conc.tested 1, Max.Conc.tested 10000, read-out: EC50
Procedure: (§1) The cells were seeded and incubated with a gradient of concentrations of drugs for 72 h, after which the cell viability was assessed (Supplementary Fig. 1a). The drug library primarily comprises epigenetic drugs, including HDAC inhibitors, DNA methyltransferase inhibitors, and histone demethylase inhibitors, as well as conventional chemotherapies and kinase inhibitors (Supplementary Fig. 1b and Supplementary Table 1). […] To identify novel therapeutics against CCA, we conducted a high-throughput screen employing PerkinElmer’s integrated robotic Explorer G3 workstations. […] Following dilution to five specified concentrations, drugs were dispensed into 96-well plates in the sequence detailed in Supplementary Fig. 1a. The CCA cell lines were subsequently plated in 384-well plates at a density of 3000 cells per well in a 20 μL total volume. After a 24-h incubation, the compounds were added to the wells and incubated for 72 h. We then quantified cell viability via the CellTiter-Glo luminescent assay according to the manufacturer’s protocol. Signal detection was carried out on a Synergy2 plate reader operated by Gen5 software (BioTek). For data processing, the raw luminescence data were processed through the Breeze pipeline for curve fitting, yielding quality control metrics (e.g., Z-factors) and drug response parameters (AUC and DSS), as adapted from previous work.[54] Drug responses were evaluated on the basis of the drug sensitivity score (DSS), and a cutoff of ≥10 was used to define efficacy. The complete drug library and screening dataset are available in Supplementary Tables 1-3.
(§2) Supplementary Fig. 1. A high-throughput drug screen to identify drugs targeting CCA. a Schematic representation of the drug screening protocol. […] Each drug was tested at five different concentrations (10, 1, 0.1, 0.01, and 0.001 μM), and each treatment was replicated twice. b Classification of drugs used for screening.

783C-6 = assay: as above; assay type: cell-based, human; parameters: AUC: scale not given here; settings: for AUC: area under the dose-response curve; for EC50: 72 h, read-out: EC50
Procedure: as §1, §2

[1] = 783C-6 DSRT analysis, DSS calculated from the dose-response curve
[2] = 783C-6 DSRT analysis, MIN of the fitted dose-response curve
[3] = 783C-6 cells, DSS of DSRT analysis
[4] = 783C-6 cells, minimum of dose-response curve
[5] = 783C-6 cells, slope of fitted dose-response curve
[6] = 783C-6 cells, DSRT analysis, CellTiter-Glo viability, concentrations tested 1 to 10000 (unit inferred), GI50
[7] = 783C-6 DSRT analysis, slope of the fitted dose-response curve

| Compound | DSS (1405R3; DSS) | AUC (1405R3) | MIN (1405R3) | DSS (783C-6; [1]) | MIN (783C-6; [2]) | AUC (783C-6; 783C-6 DSRT analysis) | DSS (1405R3; drug sensitivity score) | SLOPE (1405R3) | DSS (783C-6; [3]) | AUC (783C-6; 783C-6 cells) | MIN (783C-6; [4]) | SLOPE (783C-6; [5]) | EC50 (783C-6; [6]) [nM] | EC50 (1405R3; CellTiter-Glo viability, GI50) [nM] | SLOPE (783C-6; [7]) | EC50 (783C-6; 783C-6 DSRT analysis, CellTiter-Glo viability, fitted dose-response curve, Min.Conc.tested 1, Max.Conc.tested 10000) [nM] | EC50 (1405R3; Homo sapiens, CellTiter-Glo viability, GI50) [nM] | EC50 (783C-6; Homo sapiens) [nM] | EC50 (1405R3; Homo sapiens, CellTiter-Glo) [nM] |
| --- | --- | --- | --- | --- | --- | --- | --- | --- | --- | --- | --- | --- | --- | --- | --- | --- | --- | --- | --- |
| COc1cc(/C=C/C(=O)CC(=O)/C=C/c2ccc(O)c(OC)c2)ccc1O [Curcumin] | 0 | 1 | 97.3 | 0 | 96.8 | 2.1 | – | – | – | – | – | – | – | – | – | – | – | – | – |
| CN1CCc2c(c3ccccc3n2Cc2ccc(C(=O)NO)cc2)C1.O=C(O)C(F)(F)F [Tubastatin A TFA] | – | 17.4 | 88.8 | – | – | – | 0 | -0.1 | 0 | 24.4 | 86.5 | -0.1 | – | – | – | – | – | – | – |
| O=C(O)C(=O)O.[NH-][C@@H]1CCCC[C@H]1[NH-].[Pt+2] [Oxaliplatin] | – | 20.5 | 78.3 | – | – | – | 1.7 | -2.2 | 3.8 | 41.2 | 65.7 | -1.1 | 659 | – | – | – | – | – | – |
| CC(C)(CNC(=O)c1cccc(-c2noc(C(F)(F)F)n2)c1)c1coc(-c2ccccc2)n1 [TMP195] | – | 1.1 | 97.2 | – | – | – | 0 | -0.8 | 0 | 1.4 | 96 | -0.9 | – | – | – | – | – | – | – |
| Cc1cc(-c2ccc3nc(C4CCOCC4)n(CCOC(F)(F)F)c3c2)cn(C)c1=O [NEO2734] | – | 130.5 | 8.1 | – | – | – | 14.3 | -0.9 | 6.1 | 72.8 | 64.2 | -0.3 | 87.4 | 407 | – | – | – | – | – |
| O=C(NO)c1ccc(CC(=O)N(CCO)c2ccccc2)cc1 [HPOB] | 0 | 0.1 | 100 | 0 | 98.7 | 0.4 | – | -0.1 | – | – | – | – | – | – | -1 | – | – | – | – |
| NKL 22 | – | 6.3 | 83.7 | – | – | – | 0.2 | -2.5 | 0 | 3.5 | 92.5 | -2.5 | – | – | – | – | – | – | – |
| CC[C@H](C)n1cc(C)c2c(C(=O)NCc3c(C)cc(C)[nH]c3=O)cc(-c3ccc(N4CCNCC4)nc3)cc21 [GSK126] | 0 | 22.4 | 85.6 | 0 | 91 | 2.7 | – | -0.1 | – | – | – | – | – | – | -1 | – | – | – | – |
| Cc1sc2c(c1C)C(c1ccc(Cl)cc1)=N[C@@H](CC(=O)NCCCCCCCCNC(=O)COc1cccc3c1C(=O)N(C1CCC(=O)NC1=O)C3=O)c1nnc(C)n1-2 (some centres unmarked) [DBET6] | 0.4 | 8.2 | 80 | 6.9 | 29.1 | 59.2 | – | -2.5 | – | – | – | – | – | – | -2.5 | 1470 | – | – | – |
| CCN(c1cc(-c2ccc(CN3CCOCC3)cc2)cc(C(=O)NCc2c(C)cc(C)[nH]c2=O)c1C)C1CCOCC1 [Tazemetostat] | – | 12.2 | 92.1 | – | – | – | 0 | – | 0 | 14.4 | 90.7 | – | – | – | – | – | – | – | – |
| O=C(NO)c1cccc(C(=O)NCCc2ccccc2)c1 [BRD73954] | 0 | 13.2 | 91.5 | 0 | 90.9 | 14 | – | -0.1 | – | – | – | – | – | – | -0.1 | – | – | – | – |
| Nc1cc(F)ccc1NC(=O)c1ccc(CNC(=O)/C=C/c2cccnc2)cc1 [Tucidinostat] | – | 73.3 | 44 | – | – | – | 7 | – | 6.5 | 59.3 | 25.1 | – | – | – | – | – | 607 | 1660 | – |
| CCCc1cc(C)[nH]c(=O)c1CNC(=O)c1cc(-c2ccnc(N3CCN(C)CC3)c2)cc2c1cnn2C(C)C [GSK343] | 0 | 13.6 | 91.2 | 0 | 98.1 | 2.9 | – | – | – | – | – | – | – | – | – | – | – | – | – |
| CCCCCCCCCCCCCC(=S)NCCCC[C@H](NC(=O)OCc1ccccc1)C(=O)Nc1ccccc1 [Thiomyristoyl] | – | 18.7 | 87.9 | – | – | – | 0 | -0.1 | 0 | 2.1 | 92.9 | -1 | – | – | – | – | – | – | – |
| N[C@@H]1CCCN(c2c(/C=C3\SC(=O)NC3=O)cccc2-c2ccccc2)C1 [AZD1208] | 0 | 16 | 87 | 0 | 87.6 | 19.2 | – | -0.2 | – | – | – | – | – | – | -0.1 | – | – | – | – |
| O=C(CCCCCCC(=O)NO)NO [Suberohydroxamic acid] | – | 0.5 | 98 | – | – | – | 0 | – | 0 | 1.4 | 95.2 | – | – | – | – | – | – | – | – |
| Nc1ccccc1NC(=O)c1ccc(CNC(=O)OCc2cccnc2)cc1 [Entinostat] | 10 | 87.7 | 5.2 | 9.1 | 8.3 | 78 | – | – | – | – | – | – | – | – | – | – | – | 1420 | 1200 |
| O=C(NC[C@H](O)CN1CCc2ccccc2C1)c1cc(NC2COC2)ncn1 [EPZ015666] | 0 | 15.4 | 90.1 | 0 | 85 | 4.5 | – | – | – | – | – | – | – | – | – | – | – | – | – |
| CN1CCN(c2ccc3nc(-c4c(N)c5c(F)cccc5[nH]c4=O)[nH]c3c2)CC1 [Dovitinib] | 4.2 | 38.6 | 29.8 | 4.1 | 35.6 | 37 | – | – | – | – | – | – | – | – | – | – | – | 2700 | 2870 |
| COc1cc(C)[nH]c(=O)c1CNC(=O)c1c(C)n([C@H](C)C2CCOCC2)c2ccccc12 [CPI-360] | 0 | 11.9 | 92.3 | 0.1 | 84.8 | 36.1 | – | – | – | – | – | – | – | – | – | – | – | – | – |
| O=C([C@@H](Cc1cccc(C(F)(F)F)c1)NS(=O)(=O)c1cc(F)c2c(c1)CCNC2)N1CCCC1 [PFI-2 HCl] | – | 15.4 | 84.5 | – | – | – | 0 | – | 0 | 2.2 | 95.2 | – | – | – | – | – | – | – | – |
| N[C@H]1CC[C@H](N[C@@H]2C[C@H]2c2ccccc2)CC1 [ORY-1001] | – | 0.1 | 100 | – | – | – | 0 | – | 0 | 14.3 | 92.7 | – | – | – | – | – | – | – | – |
| COc1ccc(Cn2ccc3ccc(C(=O)NO)cc32)cc1 [PCI-34051] | – | 0.1 | 100 | – | – | – | 0 | -0.1 | 0 | 2 | 95.4 | -0.7 | – | – | – | – | – | – | – |
| CCC(CC)n1ccc2c(C(=O)NCc3c(C)cc(C)[nH]c3=O)cc(C#N)cc21 [EI1] | 0 | 0.1 | 100 | 0 | 98.2 | 0.7 | – | -0.1 | – | – | – | – | – | – | -0.8 | – | – | – | – |
| CCCCCCCCCCCCCCCCNNC(=O)c1cccs1 [SIS17] | – | 24.4 | 84.3 | – | – | – | 0 | -0.1 | 0 | 4.7 | 84.4 | -1 | – | – | – | – | – | – | – |
